Experiments:
sedge, umbrella = assay: Test B flooded paddy test; assay type: in vivo, Cyperus difformis; conditions: Flood, 250 g ai/ha; 0 to 100 scale where 0 is no effect and 100 is complete control
Summary of the method: (§1)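 Flooded to 3 cm at the 2-leaf stage, pots received compound through the paddy water and were kept at that depth under greenhouse conditions. After 13–15 days, effect was rated by eye relative to controls, 0 = none and 100 = complete control.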

velvetleaf = assay: Test C postemergence; assay type: in vivo, Abutilon theophrasti; conditions: for Velvetleaf plant response rating: 31 g ai/ha, 13 to 15 days; for Velvetleaf plant response rating / Plant response rating, Velvetleaf: scale 0 to 100 (0 no effect, 100 complete control); for Plant response rating (0 to 100), Velvetleaf: 0 is no effect, 100 is complete control
Summary of the method: (§2)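 Whole-plant greenhouse test with surfactant-containing solvent formulation, applied preemergence to sown loam–sand pots or postemergence to 2–18 cm plants. Scored by eye 13 to 15 days on, 0–100 scale.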

pigweed [1] = assay: Test A postemergence; assay type: in vivo, Amaranthus retroflexus; conditions: 0 to 100 scale where 0 is no effect and 100 is complete control; for Pigweed plant response rating: 125 g ai/ha; for Plant response rating, Pigweed: 500 g ai/ha
Summary of the method: (§3)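 Visual injury scored 0–100 (100 = complete control) against untreated controls about 10 days after treatment in a greenhouse. Test chemicals, formulated with surfactant in non-phytotoxic solvent, were sprayed on soil preemergence or on 2-10 cm, one- to two-leaf plants postemergence.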

giant foxtail = assay: Test A postemergence; assay type: in vivo, Setaria faberii; conditions: 0 to 100 scale where 0 is no effect and 100 is complete control; for Foxtail, Giant plant response rating: 125 g ai/ha; for Plant response rating, Foxtail, Giant: 500 g ai/ha
Summary of the method: as §3

barnyardgrass [2] = assay: Test A postemergence; assay type: in vivo, Echinochloa crus-galli; conditions: 0 to 100 scale where 0 is no effect and 100 is complete control; for Barnyardgrass plant response rating: 125 g ai/ha; for Plant response rating, Barnyardgrass: 500 g ai/ha
Summary of the method: as §3

rice = assay: Test B flooded paddy test; assay type: in vivo, Oryza sativa; conditions: Flood, 250 g ai/ha; 0 to 100 scale where 0 is no effect and 100 is complete control
Summary of the method: as §1

barnyardgrass [3] = assay: Test A preemergence; assay type: in vivo, Echinochloa crus-galli; conditions: 0 to 100 scale where 0 is no effect and 100 is complete control; for Plant response rating, Barnyardgrass: 125 g ai/ha; for Barnyardgrass plant response rating: 500 g ai/ha
Summary of the method: as §3

wheat [4] = assay: Test A preemergence; assay type: in vivo, Triticum aestivum; conditions: for Wheat plant response rating (0 to 100 scale): 125 g ai/ha; for Wheat plant response rating: 500 g ai/ha, 0 to 100 scale where 0 is no effect and 100 is complete control
Summary of the method: as §3

corn [5] = assay: Test A preemergence; assay type: in vivo, Zea mays; conditions: 0 to 100 scale where 0 is no effect and 100 is complete control; for Plant response rating, Corn: 125 g ai/ha; for Corn plant response rating: 500 g ai/ha
Summary of the method: as §3

pigweed [6] = assay: Test A preemergence; assay type: in vivo, Amaranthus retroflexus; conditions: for Pigweed plant response rating (0 to 100 scale): 125 g ai/ha; for Pigweed plant response rating: 500 g ai/ha, 0 to 100 scale where 0 is no effect and 100 is complete control
Summary of the method: as §3

kochia = assay: Test C postemergence; assay type: in vivo, Kochia scoparia; conditions: for Plant response rating (0 to 100), Kochia: 0 is no effect, 100 is complete control; for Kochia plant response rating: 31 g ai/ha, 13 to 15 days; for Kochia plant response rating / Plant response rating, Kochia: scale 0 to 100 (0 no effect, 100 complete control)
Summary of the method: as §2

wheat [7] = assay: Test A postemergence; assay type: in vivo, Triticum aestivum; conditions: 0 to 100 scale where 0 is no effect and 100 is complete control; for Wheat plant response rating: 125 g ai/ha; for Plant response rating, Wheat: 500 g ai/ha
Summary of the method: as §3

pigweed [8] = assay: Test C postemergence; assay type: in vivo, Amaranthus retroflexus; conditions: for Plant response rating (0 to 100), Pigweed: 0 is no effect, 100 is complete control; for Pigweed plant response rating: 31 g ai/ha, 13 to 15 days; for Pigweed plant response rating / Plant response rating, Pigweed: scale 0 to 100 (0 no effect, 100 complete control)
Summary of the method: as §2

Heteranthera limosa = assay: Test B flooded paddy test; assay type: in vivo; conditions: Flood, 250 g ai/ha; 0 to 100 scale where 0 is no effect and 100 is complete control
Summary of the method: as §1

galium = assay: Test C postemergence; assay type: in vivo, Galium aparine; conditions: for Plant response rating (0 to 100), Galium: 0 is no effect, 100 is complete control; for Galium plant response rating: 31 g ai/ha, 13 to 15 days; for Galium plant response rating / Plant response rating, Galium: scale 0 to 100 (0 no effect, 100 complete control)
Summary of the method: as §2

barnyardgrass [9] = assay: Test C postemergence; assay type: in vivo, Echinochloa crus-galli; conditions: for Plant response rating (0 to 100), Barnyardgrass: 0 is no effect, 100 is complete control; for Barnyardgrass plant response rating: 31 g ai/ha, 13 to 15 days; for Barnyardgrass plant response rating / Plant response rating, Barnyardgrass: scale 0 to 100 (0 no effect, 100 complete control)
Summary of the method: as §2

corn [10] = assay: Test A postemergence; assay type: in vivo, Zea mays; conditions: 0 to 100 scale where 0 is no effect and 100 is complete control; for Corn plant response rating: 125 g ai/ha; for Plant response rating, Corn: 500 g ai/ha
Summary of the method: as §3

[11] = 125 g ai/ha, postemergence, visual rating

In the case of `Fc1cnc(Oc2cccc(C(F)F)c2-n2cc(C(F)(F)F)cn2)nc1` [Compound 164], the “Plant response rating, Sedge, Umbrella” value (sedge, umbrella) is reported as 90, the “Velvetleaf plant response rating” value (velvetleaf; postemergence, visual rating) is reported as 15 and the “Plant response rating, Velvetleaf” value (velvetleaf; [11]) is reported as 65. For the same molecule, the “Plant response rating, Velvetleaf” value (velvetleaf; Postemergence, 62 g ai/ha) was 40, the “Pigweed plant response rating” value (pigweed [1]) was 100 and the “Plant response rating, Pigweed” value (pigweed [1]) was 100. The “Foxtail, Giant plant response rating” value (giant foxtail) was 90, the “Plant response rating, Foxtail, Giant” value (giant foxtail) was 100 and the “Barnyardgrass plant response rating” value (barnyardgrass [2]) was 70. For the same molecule, the “Plant response rating, Barnyardgrass” value (barnyardgrass [2]) was 100, the “Plant response rating, Rice” value (rice) was 0 and the “Plant response rating, Barnyardgrass” value (barnyardgrass [3]) was 90. For the same molecule, the “Barnyardgrass plant response rating” value (barnyardgrass [3]) was 100, the “Wheat plant response rating (0 to 100 scale)” value (wheat [4]) was 20 and the “Wheat plant response rating” value (wheat [4]) was 90. For the same molecule, the “Plant response rating, Corn” value (corn [5]) was 10, the “Corn plant response rating” value (corn [5]) was 60 and the “Pigweed plant response rating (0 to 100 scale)” value (pigweed [6]) was 100. For the same molecule, the “Pigweed plant response rating” value (pigweed [6]) was 100, the “Plant response rating (0 to 100), Kochia” value (kochia; 16 g ai/ha, postemergence) was 80 and the “Kochia plant response rating” value (kochia; postemergence, visual rating) was 90. For the same molecule, the “Plant response rating, Kochia” value (kochia; [11]) was 95, the “Plant response rating, Kochia” value (kochia; Postemergence, 62 g ai/ha) was 90 and the “Wheat plant response rating” value (wheat [7]) was 70. For the same molecule, the “Plant response rating, Wheat” value (wheat [7]) was 90, the “Plant response rating (0 to 100), Pigweed” value (pigweed [8]; 16 g ai/ha, postemergence) was 50 and the “Pigweed plant response rating” value (pigweed [8]; postemergence, visual rating) was 75. The “Plant response rating, Pigweed” value (pigweed [8]; [11]) was 80, the “Plant response rating, Pigweed” value (pigweed [8]; Postemergence, 62 g ai/ha) was 75 and the “Plant response rating, Ducksalad” value (Heteranthera limosa) was 100. For the same molecule, the “Plant response rating (0 to 100), Galium” value (galium; 16 g ai/ha, postemergence) was 50, the “Galium plant response rating” value (galium; postemergence, visual rating) was 55 and the “Plant response rating, Galium” value (galium; [11]) was 65. The “Plant response rating, Galium” value (galium; Postemergence, 62 g ai/ha) was 80, the “Plant response rating (0 to 100), Barnyardgrass” value (barnyardgrass [9]; 16 g ai/ha, postemergence) was 0 and the “Barnyardgrass plant response rating” value (barnyardgrass [9]; postemergence, visual rating) was 0. The “Plant response rating, Barnyardgrass” value (barnyardgrass [9]; [11]) was 5, the “Plant response rating, Barnyardgrass” value (barnyardgrass [9]; Postemergence, 62 g ai/ha) was 5 and the “Corn plant response rating” value (corn [10]) was 40. The “Plant response rating, Corn” value (corn [10]) was 90.
With `O=Cc1cccc(Oc2ncc(I)cn2)c1-n1cc(Br)cn1` [Compound 172] the “Plant response rating, Sedge, Umbrella” value (sedge, umbrella) was 0, the “Plant response rating (0 to 100), Velvetleaf” value (velvetleaf; 8 g ai/ha, postemergence) was 5 and the “Plant response rating (0 to 100), Velvetleaf” value (velvetleaf; 16 g ai/ha, postemergence) was 5. The “Velvetleaf plant response rating” value (velvetleaf; postemergence, visual rating) was 10, the “Plant response rating, Velvetleaf” value (velvetleaf; Postemergence, 62 g ai/ha) was 10 and the “Pigweed plant response rating” value (pigweed [1]) was 100. For the same molecule, the “Plant response rating, Pigweed” value (pigweed [1]) was 100, the “Foxtail, Giant plant response rating” value (giant foxtail) was 0 and the “Plant response rating, Foxtail, Giant” value (giant foxtail) was 20. For the same molecule, the “Barnyardgrass plant response rating” value (barnyardgrass [2]) was 30, the “Plant response rating, Barnyardgrass” value (barnyardgrass [2]) was 60 and the “Plant response rating, Rice” value (rice) was 0. For the same molecule, the “Plant response rating, Barnyardgrass” value (barnyardgrass [3]) was 0, the “Barnyardgrass plant response rating” value (barnyardgrass [3]) was 0 and the “Wheat plant response rating (0 to 100 scale)” value (wheat [4]) was 0. The “Wheat plant response rating” value (wheat [4]) was 0, the “Plant response rating, Corn” value (corn [5]) was 0 and the “Corn plant response rating” value (corn [5]) was 0. The “Pigweed plant response rating (0 to 100 scale)” value (pigweed [6]) was 0, the “Pigweed plant response rating” value (pigweed [6]) was 50 and the “Plant response rating (0 to 100), Kochia” value (kochia; 8 g ai/ha, postemergence) was 0. For the same molecule, the “Plant response rating (0 to 100), Kochia” value (kochia; 16 g ai/ha, postemergence) was 0, the “Kochia plant response rating” value (kochia; postemergence, visual rating) was 0 and the “Plant response rating, Kochia” value (kochia; Postemergence, 62 g ai/ha) was 30. The “Wheat plant response rating” value (wheat [7]) was 0, the “Plant response rating, Wheat” value (wheat [7]) was 0 and the “Plant response rating (0 to 100), Pigweed” value (pigweed [8]; 8 g ai/ha, postemergence) was 5. For the same molecule, the “Plant response rating (0 to 100), Pigweed” value (pigweed [8]; 16 g ai/ha, postemergence) was 10, the “Pigweed plant response rating” value (pigweed [8]; postemergence, visual rating) was 10 and the “Plant response rating, Pigweed” value (pigweed [8]; Postemergence, 62 g ai/ha) was 5. The “Plant response rating, Ducksalad” value (Heteranthera limosa) was 0, the “Plant response rating (0 to 100), Galium” value (galium; 8 g ai/ha, postemergence) was 0 and the “Plant response rating (0 to 100), Galium” value (galium; 16 g ai/ha, postemergence) was 0. The “Galium plant response rating” value (galium; postemergence, visual rating) was 0, the “Plant response rating, Galium” value (galium; Postemergence, 62 g ai/ha) was 10 and the “Plant response rating (0 to 100), Barnyardgrass” value (barnyardgrass [9]; 8 g ai/ha, postemergence) was 0. For the same molecule, the “Plant response rating (0 to 100), Barnyardgrass” value (barnyardgrass [9]; 16 g ai/ha, postemergence) was 5, the “Barnyardgrass plant response rating” value (barnyardgrass [9]; postemergence, visual rating) was 5 and the “Plant response rating, Barnyardgrass” value (barnyardgrass [9]; Postemergence, 62 g ai/ha) was 5. The “Corn plant response rating” value (corn [10]) was 0 and the “Plant response rating, Corn” value (corn [10]) was 20.
